Legend:
[1] = cited from earlier work
[2] = after two treatment periods, 26 volunteers, single dose; 7 in total, all light
From the text: All subjects agreed to participate in the study and were considered as healthy, all as determined through detection tests including medical history, physical examination, electrocardiogram, hematic biometry, blood chemistry with 24 elements, detection of drug abuse, general urine exam as well as hepatitis B and HIV tests. […] Smokers, pregnant women and subjects with a clinical history of hypersensitivity to drugs, foods or environmental substances were not included.
The prospective and longitudinal study was performed in a crossed and balanced, randomized design with two sequences, two periods, a single dose, single blind with a wash out period of 1 week between treatments. […] After dosing, serial blood samples were collected and vital signs monitored during a period of 24 hours. […] Vital signs were measured at 0, 1, 2, 3, 4, 6, 8, 12 and 24 hours after dosing. Subjects were held for 36 hours and monitored for safety and adverse effects throughout the study. Volunteers received a diet calculated at 3000 cal/day in each period.

clinical = details: both, human, in vivo
From the text: All subjects agreed to participate in the study and were considered as healthy, all as determined through detection tests including medical history, physical examination, electrocardiogram, hematic biometry, blood chemistry with 24 elements, detection of drug abuse, general urine exam as well as hepatitis B and HIV tests. Vital signs were considered normal with blood pressure of 50-90/84-120 mmHg, heart rate of 50-100 pulses/min, breathing rate was 14-25 breaths/min, and tympanic temperature of 36-37.8° C. […] Smokers, pregnant women and subjects with a clinical history of hypersensitivity to drugs, foods or environmental substances were not included.
The prospective and longitudinal study was performed in a crossed and balanced, randomized design with two sequences, two periods, a single dose, single blind with a wash out period of 1 week between treatments. […] After dosing, serial blood samples were collected and vital signs monitored during a period of 24 hours. Blood samples of 10 mL each were extracted at 0, 0.25, 0.5, 0.75, 1, 1.25, 1.5, 1.75, 2, 3, 4, 6, 8, 12 and 24 hours after administration. Vital signs were measured at 0, 1, 2, 3, 4, 6, 8, 12 and 24 hours after dosing. Subjects were held for 36 hours and monitored for safety and adverse effects throughout the study. Volunteers received a diet calculated at 3000 cal/day in each period. […]

CN(C)C(=N)N=C(N)N [Metformin]
Excreted with no changes in the urine ([1]; in vivo): ~90% | Number of adverse effects [2]: 3 | Cmax (clinical; 500 mg): 1390 ± 440 ng/mL | Tmax (clinical; po): 2.41 h

CCCCCCCCCCC[C@@H](C[C@@H]1OC(=O)[C@H]1CCCCCC)OC(=O)[C@H](CC(C)C)NC=O [Orlistat]
Dietetic fat excreted in feces ([1]; in vivo): up to 30% | Excreted in feces ([1]; in vivo): ~97% | Oral bioavailability ([1]; metformin when fasting, orlistat administered orally): below 5%
